Values after ≈ are worked out from the molar mass of the structure shown.
Legend:
Test in all cases: MIC in vitro
Format in all cases: cell-based
Escherichia coli R-1513 = conditions: R1513, Dextrose agar, 37° C., 20 hours
Procedure: (§1) (G. L. Daquet and Y. A. Chabbect, Techniques en bacteriologie (Bacteriological techniques), vol. 3, Flammarion Medecine Sciences, Paris, 1972 and W. B. Hugo and A. D. Rusell, Pharmaceutical Microbiology, Blackwell Scientific Publications, London, (1977)). Antibiotic medium no. 1 (seed agar) (Oxoid CM 327) Tryptone-soya broth (Oxoid CM 129) Ringer's physiological solution 1/4 (oxoid BR 52) Dextrose agar (BBL-11165) 0.1 N NaOH "Escherichia coli" R-1513 Each of the microorganisms is seeded by streaking in tubes of Antibiotic medium No. 1 (seed agar), which are then incubated at 37° C. for 20 hours. Using a culture loop, the cultures are then seeded in tryptone-soyabroth and incubated at 37° C. for 20 hours. The culture obtained is diluted to 1/4 with Ringer's physiological solution, so as to obtain a standardized suspension of 10^7 -10^9 cfu/ml for each organism. Starting from a solution of 1,000 μg/ml in 0.1 N NaOH, each product is diluted in Dextrose agar (previously melted and maintained at 50° C.), with successive dilutions so as to obtain the following concentrations: 64--32--16--8--4--2--1--0.5--0.25--0.125 μg of derivative/ml medium. For each product, the solution of each concentration is subsequently distributed into Petri dishes 10 cm in diameter, with 10 ml of medium per dish and the same number of dishes as microorganisms to be tested. As soon as the medium has cooled, the dishes are seeded with the inoculations using 0.4 ml of inoculation per dish. They are spread with a Driglasky loop and the supernatant is removed. The seeded dishes are incubated at 37° C. for 20 hours.

[1] = test system: Micrococus flavus ATCC 10240; conditions: Micrococcus flavus, ATCC10240, Dextrose agar, 37° C., 20 hours
Procedure: as §1, with “"Micrococcus flavus" ATCC 10240” for “"Escherichia coli" R-1513”

[2] = test system: Enterobacter cloacae CHSP 20; conditions: CHSP20, Dextrose agar, 37° C., 20 hours
Procedure: as §1, with “"Enterobacter cloacae" CHSP 20” for “"Escherichia coli" R-1513”

SMILES	MIC (Escherichia coli R-1513) [µg/mL]	MIC [1] [µg/mL]	MIC [2] [µg/mL]
CCn1cc(C(=O)O)c(=O)c2ccc(-n3cccc3)cc21 [Example 1, 7-(1-pyrrolyl)-1-ethyl-1,4-dihydro-4-oxo-3-quinolinecarboxylic acid]	16 (≈ 56.7 µM)	16 (≈ 56.7 µM)	16 (≈ 56.7 µM)
CCn1cc(C(=O)O)c(=O)c2cc(F)c(-n3cccc3)cc21 [Example 2, 6-fluoro-7-(1-pyrrolyl)-1-ethyl-1,4-dihydro-4-oxo-3-quinolinecarboxylic acid]	4 (≈ 13.3 µM)	8 (≈ 26.6 µM)	1 (≈ 3.33 µM)
CCn1cc(C(=O)O)c(=O)c2ccc(-n3cccc3)nc21 [Example 3, 1-ethyl-1,4-dihydro-4-oxo-7-(1-pyrrolyl)-1,8-naphthyridine-3-carboxylic acid]	16 (≈ 56.5 µM)	4 (≈ 14.1 µM)	8 (≈ 28.2 µM)
CCn1cc(C(=O)O)c(=O)c2cc(F)c(-n3cccc3)nc21 [Example 4, 1-ethyl-1,4-dihydro-4-oxo-6-fluoro-7-(1-pyrrolyl)-1,8-naphthyridine-3-carboxylic acid]	4 (≈ 13.3 µM)	1 (≈ 3.32 µM)	2 (≈ 6.64 µM)
CCn1cc(C(=O)O)c(=O)c2cnc(N3CCNCC3)nc21 [Pipemidic acid, reference compound]	16 (≈ 52.7 µM)	> 64	8 (≈ 26.4 µM)

Reference: patent publication US4552882A, “7-(1-Pyrrolyl) derivatives of 1-ethyl-1,4-dihydro-4-oxoquinoline-3-carboxylic acids and 1-ethyl-1,4-dihydro-4-oxo-1,8-naphthyridine-3-carboxylic acids and their use as antimicrobial agents” (Provesan, SA, priority 1983, dated 1985)
